These results are taken from the OligoGym collection.

Several values for one entry are separate records, joined by “and”; a condition that tells them apart may be missing. Equal values may be shown once. After the bases stand the sugars from the 5' end (letter, count) and the backbone: PS all phosphorothioate, else s phosphorothioate and o phosphodiester by linkage. Methylation of C is not given here. e = 2'-O-(2-methoxyethyl) (MOE); k = constrained ethyl (cEt); d = 2'-deoxy (DNA)

This series concerns the target APOL1. The following applies: ASO.

Take “CTTTATACCAGTGTCT (sugars kkddddekekeddddd, PS)”: the target mRNA inhibition was 29% (A431, 0.0156 µM); 50% (A431, 0.04 µM); 60% (A431, 0.0625 µM); 82% (A431, 0.25 µM); 95% (A431, 1 µM); 98% (A431, 2 µM).

For the sequence GAACATTGAAACACCA (sugars k4 d9 k3, PS), the target mRNA inhibition is, setting by setting: (A431, 0.0625 µM) 39%; (A431, 0.25 µM) 70%; (A431, 1 µM) 89%.

Turning to “GAACGCAATGCTGACT (sugars kkddddekekeddddd, PS)”, the target mRNA inhibition by setting is: (A431, 0.0156 µM) 19%; (A431, 0.0625 µM) 40%; (A431, 0.25 µM) 74%; (A431, 1 µM) 92%; (A431, 2 µM) 95%.

“GAAGATTGGCTCTGGC (sugars kkddddekekeddddd, PS)” showed a target mRNA inhibition (A431, 2 µM) of 64%.

Consider “GAAGATTGGCTCTGGC (sugars kkddddkekekddddd, PS)”, for which the target mRNA inhibition (A431, 2 µM) worked out at 48%.

In the case of “GAAGATTGGCTCTGGC (sugars kkkddddkdkdkdddd, PS)”, the target mRNA inhibition (A431, 2 µM) was determined as 51%.

For the setting “A431, 2 µM”, “GAAGATTGGCTCTGGC (sugars kkkddddkekekdddd, PS)” had a target mRNA inhibition of 16%.

“GAAGCTTTAAACTCAG (sugars k2 d4 e3 k2 d5, PS)” returned a target mRNA inhibition (A431, 2 µM) of 72%.

Turning to GAATGAGCAGGTCAGA (sugars k4 d9 k3, PS), the target mRNA inhibition (A431, 0.0625 µM) came to 41%; the target mRNA inhibition (A431, 0.25 µM) was 75%; the target mRNA inhibition (A431, 1 µM) came to 91%.

In turn, “GAATTATGGAATTGCA (sugars k3 d4 k3 e1 d5, PS)” displayed a target mRNA inhibition (A431, 2 µM) of 90%.

Under “A431, 2 µM”, “GAATTATGGAATTGCA (sugars kkddddkdkdkddddd, PS)” came in with a target mRNA inhibition of 82%.

“GAGTATTGTTTTTGTG (sugars kkdddddkekeddddd, PS)” came in with a target mRNA inhibition (A431, 0.0156 µM) of 33%; a target mRNA inhibition (A431, 0.0625 µM) of 75%; a target mRNA inhibition (A431, 0.25 µM) of 91%; a target mRNA inhibition (A431, 1 µM) of 96%; a target mRNA inhibition (A431, 2 µM) of 96%.

Under “A431, 2 µM”, “GAGTATTGTTTTTGTG (sugars kkddddkekekkdddd, PS)” yielded a target mRNA inhibition of 85%.

Consider “GAGTATTGTTTTTGTG (sugars kkkddddkekekdddd, PS)”, for which the target mRNA inhibition (A431, 2 µM) came to 56%.

For GCAATTTTATGGAACC (sugars k4 d9 k3, PS), the target mRNA inhibition (A431, 0.04 µM) was found to be 42% and the target mRNA inhibition (A431, 1 µM) came out at 91%.

“GCATTCAGAATTTCCA (sugars kkkddddkekeddddd, PS)”: for the setting “A431, 2 µM”, the target mRNA inhibition worked out at 84%.

For GCTAAGTTCCGGTCTC (sugars k4 d9 k3, PS), the target mRNA inhibition reads like this: (A431, 0.0625 µM) 50%; (A431, 0.25 µM) 74%; (A431, 1 µM) 85%.

Sequence “GCTAATTTTCTGACTG (sugars kkdddddkekeddddd, PS)” came in with a target mRNA inhibition (A431, 0.0156 µM) of 11%; a target mRNA inhibition (A431, 0.0625 µM) of 47%; a target mRNA inhibition (A431, 0.25 µM) of 82%; a target mRNA inhibition (A431, 1 µM) of 94%; a target mRNA inhibition (A431, 2 µM) of 99%.

In the case of “GCTAATTTTCTGACTG (sugars kkddddkdkdkddddd, PS)”, the target mRNA inhibition by setting is: (A431, 0.0156 µM) 10%; (A431, 0.0625 µM) 40%; (A431, 0.25 µM) 71%; (A431, 1 µM) 87%; (A431, 2 µM) 93%.

Turning to “GCTAATTTTCTGACTG (sugars kkkddddkekekdddd, PS)”, under “A431, 2 µM”, the target mRNA inhibition amounted to 88%.

“GCTTTAAACTCAGGTG (sugars k2 d4 e3 k2 d5, PS)”: the target mRNA inhibition (A431, 2 µM) amounted to 91%.

In turn, “GCTTTAAACTCAGGTG (sugars k3 d4 k3 e1 d5, PS)” showed a target mRNA inhibition (A431, 2 µM) of 74%.

As to “GCTTTAAACTCAGGTG (sugars kekddddeekkddddd, PS)”, the target mRNA inhibition (A431, 2 µM) came to 93%.

In the case of “GCTTTAAACTCAGGTG (sugars kkdddddkekeddddd, PS)”, the target mRNA inhibition was 6% (A431, 0.0156 µM); 35% (A431, 0.0625 µM); 67% (A431, 0.25 µM); 85% (A431, 1 µM); 91% (A431, 2 µM).

Turning to “GCTTTAAACTCAGGTG (sugars kkkddddkdkdkdddd, PS)”, the target mRNA inhibition is, setting by setting: (A431, 0.0156 µM) 18%; (A431, 0.0625 µM) 54%; (A431, 0.25 µM) 81%; (A431, 1 µM) 93%; (A431, 2 µM) 93%.

Turning to “GCTTTAAACTCAGGTG (sugars kkkddddkekekdddd, PS)”, the target mRNA inhibition (A431, 2 µM) is 68%.

Consider “GGAATTATGGAATTGC (sugars k3 d4 k3 e1 d5, PS)”, for which the target mRNA inhibition (A431, 2 µM) came to 65%.

For the sequence “GGAATTATGGAATTGC (sugars kkddddekekeddddd, PS)”, the target mRNA inhibition worked out at 23% (A431, 0.0156 µM); 62% (A431, 0.0625 µM); 89% (A431, 0.25 µM); 97% (A431, 1 µM); 97% (A431, 2 µM).

As to “GGAATTATGGAATTGC (sugars kkddddkdkdkddddd, PS)”, under “A431, 2 µM”, the target mRNA inhibition stood at 89%.

The sequence “GGCAGTTTTGTAAGTG (sugars kkddddekekeddddd, PS)” yielded a target mRNA inhibition (A431, 2 µM) of 75%.

On to “GGCAGTTTTGTAAGTG (sugars kkddddkekekddddd, PS)”, for which, for the setting “A431, 2 µM”, the target mRNA inhibition was found to be 65%.

In the case of “GGCATTCAGAATTTCC (sugars k2 d4 e3 k2 d5, PS)”, where the note is “A431, 2 µM”, the target mRNA inhibition was 97%.

The sequence “GGCATTCAGAATTTCC (sugars kkddddekekeddddd, PS)” showed a target mRNA inhibition (A431, 2 µM) of 93%.

In turn, “GGCATTCAGAATTTCC (sugars kkddddkekekddddd, PS)” came in with a target mRNA inhibition (A431, 2 µM) of 46%.

Consider “GGCATTCAGAATTTCC (sugars kkkddddkekekdddd, PS)”, for which, for the setting “A431, 2 µM”, the target mRNA inhibition came out at 20%.

“GGGTTATGAAATTATT (sugars kkddddkekekddddd, PS)” yielded a target mRNA inhibition (A431, 2 µM) of 84%.

With GGTAAGAGCGATGGGA (sugars k3 d10 k3, PS), the target mRNA inhibition is, setting by setting: (A431, 0.0625 µM) 79%; (A431, 0.25 µM) 93%; (A431, 1 µM) 97%.

The sequence “GGTTATGAAATTATTG (sugars k2 d4 e3 k2 d5, PS)” had a target mRNA inhibition (A431, 2 µM) of 61%.

For “GGTTATGAAATTATTG (sugars kkkddddkekeddddd, PS)”, the target mRNA inhibition (A431, 2 µM) was found to be 88%.

Regarding “GGTTCAAAAGCAGCAT (sugars k2 d4 e3 k2 d5, PS)”, the target mRNA inhibition is 21% (A431, 0.0156 µM); 60% (A431, 0.0625 µM); 86% (A431, 0.25 µM); 94% (A431, 1 µM); 95% (A431, 2 µM).

GGTTCAAAAGCAGCAT (sugars k4 d9 k3, PS) showed a target mRNA inhibition (A431, 0.0625 µM) of 78%; a target mRNA inhibition (A431, 0.25 µM) of 91%; a target mRNA inhibition (A431, 1 µM) of 95%.

“GTAAGTATTGCCAGCT (sugars k2 d4 e3 k2 d5, PS)” yielded a target mRNA inhibition (A431, 2 µM) of 89%.

As for GTAAGTGCAACCAATC (sugars k4 d9 k3, PS), the target mRNA inhibition (A431, 0.0625 µM) was 75%; the target mRNA inhibition (A431, 0.25 µM) stood at 93%; the target mRNA inhibition (A431, 1 µM) came out at 99%.

For the sequence “GTATTGCCAGCTAAGG (sugars kddddkekekeddddd, PS)”, the target mRNA inhibition (A431, 2 µM) came out at 70%.

Turning to “GTATTTCTTGATGTGG (sugars kdddddkekekddddd, PS)”, under “A431, 2 µM”, the target mRNA inhibition stood at 92%.

As for “GTATTTCTTGATGTGG (sugars kddddkekekeddddd, PS)”, the target mRNA inhibition (A431, 2 µM) came out at 87%.

For the setting “A431, 2 µM”, “GTGAGTATTGTTTTTG (sugars k2 d4 e3 k2 d5, PS)” gave a target mRNA inhibition of 92%.

With “GTGAGTATTGTTTTTG (sugars kkkddddkekekdddd, PS)”, for the setting “A431, 2 µM”, the target mRNA inhibition worked out at 85%.

For the sequence “GTGTATTTCTTGATGT (sugars kkddddkekekddddd, PS)”, the target mRNA inhibition (A431, 2 µM) came to 95%.

In the case of “GTGTATTTCTTGATGT (sugars kkkddddkekekdddd, PS)”, the target mRNA inhibition (A431, 2 µM) was found to be 84%.

GTGTGAGTTGGTAAGT (sugars k4 d9 k3, PS): the target mRNA inhibition is, setting by setting: (A431, 0.0625 µM) 54%; (A431, 0.25 µM) 85%; (A431, 1 µM) 95%.

For “GTGTTATATTTGATCC (sugars kkkddddkekeddddd, PS)”, the target mRNA inhibition reads like this: (A431, 0.0156 µM) 24%; (A431, 0.04 µM) 50%; (A431, 0.0625 µM) 66%; (A431, 0.25 µM) 89%; (A431, 1 µM) 95%; (A431, 2 µM) 96%.

“GTTATATTTGATCCTC (sugars k2 d4 e3 k2 d5, PS)” returned a target mRNA inhibition (A431, 0.0156 µM) of 2%; a target mRNA inhibition (A431, 0.0625 µM) of 31%; a target mRNA inhibition (A431, 0.25 µM) of 67%; a target mRNA inhibition (A431, 1 µM) of 89%; a target mRNA inhibition (A431, 2 µM) of 93%.

“GTTATATTTGATCCTC (sugars k3 d4 k3 e1 d5, PS)” gave a target mRNA inhibition (A431, 2 µM) of 98%.

“GTTATATTTGATCCTC (sugars kddddkekekeddddd, PS)”: for the setting “A431, 2 µM”, the target mRNA inhibition came to 60%.

Sequence “GTTATATTTGATCCTC (sugars kkdddddkekeddddd, PS)” came in with a target mRNA inhibition (A431, 2 µM) of 97%.

As for “GTTATATTTGATCCTC (sugars kkddddekekeddddd, PS)”, the target mRNA inhibition reads like this: (A431, 0.0156 µM) 8%; (A431, 0.0625 µM) 37%; (A431, 0.25 µM) 69%; (A431, 1 µM) 64%; (A431, 2 µM) 96%.

Take “GTTATATTTGATCCTC (sugars kkddddkekekkdddd, PS)”: the target mRNA inhibition (A431, 2 µM) turned out to be 43%.

In turn, “GTTATATTTGATCCTC (sugars kkkddddkekekdddd, PS)” showed a target mRNA inhibition (A431, 2 µM) of 66%.

GTTATGAAATTATTGG (sugars k4 d9 k3, PS): the target mRNA inhibition was 58% and 42% (A431, 0.0625 µM); 87% and 73% (A431, 0.25 µM); 95% and 87% and 97% (A431, 1 µM).

For the setting “A431, 2 µM”, “GTTATGAAATTATTGG (sugars kddddkekekeddddd, PS)” showed a target mRNA inhibition of 77%.

With “GTTATGAAATTATTGG (sugars kekddddeekkddddd, PS)”, the target mRNA inhibition (A431, 0.0156 µM) was determined as 14%; the target mRNA inhibition (A431, 0.0625 µM) worked out at 43%; the target mRNA inhibition (A431, 0.25 µM) is 64%; the target mRNA inhibition (A431, 1 µM) is 84%; the target mRNA inhibition (A431, 2 µM) was 90%.
